Test results taken from patent publication US20180140578A1, “METHODS AND COMPOSITIONS FOR THE DIAGNOSIS AND SELECTIVE TREATMENT OF CANCER” (Board of Regents of the University of Texas System, priority 2016, published 2018).
Where two headings read alike, the source gives them in different places.

Tests used:
Assay in all cases: IC50 assay, NSCLC cell lines (Cell Titer Glo, total ATP)
Type in all cases: cell-based
Conditions in all cases: Homo sapiens
[1] = test system: A549
Experimental: (§1) Cells were plated at ˜15% confluence in a media comprising 5% concentration of fetal bovine serum supplemented with RPMI, which included 2 mM L-Glutamine in a 96 well dish. […] Following three days of incubation in a 5% CO2 incubator, the total ATP in each well was quantified using Cell Titer Glo (Promega). […] The solid lines represent the medians.

[2] = test system: H1155
Experimental: as §1

[3] = test system: H1373
Experimental: as §1

[4] = test system: H1437
Experimental: as §1

[5] = test system: H157
Experimental: as §1

[6] = test system: H1648
Experimental: as §1

[7] = test system: H1650
Experimental: as §1

[8] = test system: H1819
Experimental: as §1

[9] = test system: H1944
Experimental: as §1

[10] = test system: H1975
Experimental: as §1

[11] = test system: H2009
Experimental: as §1

[12] = test system: H2030
Experimental: as §1

[13] = test system: H2122
Experimental: as §1

[14] = test system: H2170
Experimental: as §1

[15] = test system: H2250
Experimental: as §1

[16] = test system: H2347
Experimental: as §1

[17] = test system: H2444
Experimental: as §1

[18] = test system: H2882
Experimental: as §1

[19] = test system: H292
Experimental: as §1

[20] = test system: H3122
Experimental: as §1

[21] = test system: H522
Experimental: as §1

[22] = test system: H820
Experimental: as §1

[23] = test system: HCC15
Experimental: as §1

[24] = test system: HCC2814
Experimental: as §1

[25] = test system: HCC4017
Experimental: as §1

[26] = test system: HCC44
Experimental: as §1

[27] = test system: HCC78
Experimental: as §1

[28] = read-out: Indisulam IC50 (log 10) (converted), U2AF1 WT
[29] = read-out: Indisulam IC50, U2AF1 WT

NS(=O)(=O)c1ccc(S(=O)(=O)Nc2cccc3c(Cl)c[nH]c23)cc1 [Indisulam, indisulam]
IC50 [1, 28]: 46.6 µM | IC50 [1, 29]: 46.6 µM | IC50 ([2]; NCI-H1155, read-out: Indisulam IC50 (log 10) (converted), U2AF1 WT): 0.242 µM | IC50 ([2]; NCI-H1155, read-out: Indisulam IC50, U2AF1 WT): 0.242 µM | IC50 ([3]; NCI-H1373, read-out: Indisulam IC50 (log 10) (converted), U2AF1 S34F): 0.23 µM | IC50 ([3]; NCI-H1373, read-out: Indisulam IC50, U2AF1 S34F): 0.23 µM | IC50 ([4]; NCI-H1437, read-out: Indisulam IC50 (log 10) (converted), U2AF1 WT): 14 µM | IC50 ([4]; NCI-H1437, read-out: Indisulam IC50, U2AF1 WT): 14 µM | IC50 ([5]; NCI-H157, read-out: Indisulam IC50 (log 10) (converted), U2AF1 WT): 140 µM | IC50 ([5]; NCI-H157, read-out: Indisulam IC50, U2AF1 WT): 140 µM | IC50 ([6]; NCI-H1648, read-out: Indisulam IC50 (log 10) (converted), U2AF1 WT): 16.8 µM | IC50 ([6]; NCI-H1648, read-out: Indisulam IC50, U2AF1 WT): 16.8 µM | IC50 ([7]; NCI-H1650, read-out: Indisulam IC50 (log 10) (converted), U2AF1 WT): 31.9 µM | IC50 ([7]; NCI-H1650, read-out: Indisulam IC50, U2AF1 WT): 31.9 µM | IC50 ([8]; NCI-H1819, read-out: Indisulam IC50 (log 10) (converted), U2AF1 WT): 9.6 µM | IC50 ([8]; NCI-H1819, read-out: Indisulam IC50, U2AF1 WT): 9.6 µM | IC50 ([9]; NCI-H1944, read-out: Indisulam IC50 (log 10) (converted), U2AF1 WT): 163 µM | IC50 ([9]; NCI-H1944, read-out: Indisulam IC50, U2AF1 WT): 163 µM | IC50 ([10]; NCI-H1975, read-out: Indisulam IC50 (log 10) (converted), U2AF1 WT): 1.51 µM | IC50 ([10]; NCI-H1975, read-out: Indisulam IC50, U2AF1 WT): 1.51 µM | IC50 ([11]; NCI-H2009, read-out: Indisulam IC50 (log 10) (converted), U2AF1 WT): 17.4 µM | IC50 ([11]; NCI-H2009, read-out: Indisulam IC50, U2AF1 WT): 17.4 µM | IC50 ([12]; NCI-H2030, read-out: Indisulam IC50 (log 10) (converted), U2AF1 WT): 79.1 µM | IC50 ([12]; NCI-H2030, read-out: Indisulam IC50, U2AF1 WT): 79.1 µM | IC50 ([13]; NCI-H2122, read-out: Indisulam IC50 (log 10) (converted), U2AF1 WT): 18.8 µM | IC50 ([13]; NCI-H2122, read-out: Indisulam IC50, U2AF1 WT): 18.8 µM | IC50 ([14]; NCI-H2170, read-out: Indisulam IC50 (log 10) (converted), U2AF1 WT): 29.6 µM | IC50 ([14]; NCI-H2170, read-out: Indisulam IC50, U2AF1 WT): 29.6 µM | IC50 [15, 28]: ≥ 500 µM | IC50 [15, 29]: 1180 µM | IC50 ([16]; NCI-H2347, read-out: Indisulam IC50 (log 10) (converted), U2AF1 WT): 13.5 µM | IC50 ([16]; NCI-H2347, read-out: Indisulam IC50, U2AF1 WT): 13.5 µM | IC50 ([17]; NCI-H2444, read-out: Indisulam IC50 (log 10) (converted), U2AF1 WT): 14.1 µM | IC50 ([17]; NCI-H2444, read-out: Indisulam IC50, U2AF1 WT): 14.1 µM | IC50 ([18]; NCI-H2882, read-out: Indisulam IC50 (log 10) (converted), U2AF1 WT): 12.2 µM | IC50 ([18]; NCI-H2882, read-out: Indisulam IC50, U2AF1 WT): 12.2 µM | IC50 ([19]; NCI-H292, read-out: Indisulam IC50 (log 10) (converted), U2AF1 WT): 1.12 µM | IC50 ([19]; NCI-H292, read-out: Indisulam IC50, U2AF1 WT): 1.12 µM | IC50 ([20]; NCI-H3122, read-out: Indisulam IC50 (log 10) (converted), U2AF1 WT): 70.1 µM | IC50 ([20]; NCI-H3122, read-out: Indisulam IC50, U2AF1 WT): 70.1 µM | IC50 ([21]; NCI-H522, read-out: Indisulam IC50 (log 10) (converted), U2AF1 WT): 1.22 µM | IC50 ([21]; NCI-H522, read-out: Indisulam IC50, U2AF1 WT): 1.22 µM | IC50 ([22]; NCI-H820, read-out: Indisulam IC50 (log 10) (converted), U2AF1 WT): 5.17 µM | IC50 ([22]; NCI-H820, read-out: Indisulam IC50, U2AF1 WT): 5.17 µM | IC50 [23, 28]: 6.32 µM | IC50 [23, 29]: 6.32 µM | IC50 [24, 28]: 8.72 µM | IC50 [24, 29]: 8.72 µM | IC50 [25, 28]: 12.6 µM | IC50 [25, 29]: 12.6 µM | IC50 [26, 28]: 23 µM | IC50 [26, 29]: 23 µM | IC50 ([27]; read-out: Indisulam IC50 (log 10) (converted), U2AF1 S34F): 1.15 µM | IC50 ([27]; read-out: Indisulam IC50, U2AF1 S34F): 1.15 µM
